Laboratory results: patent publication US11958844B2, “1,3,4-oxadiazole derivative compounds as histone deacetylase 6 inhibitor, and pharmaceutical composition comprising the same” (Chong Kun Dang Pharmaceutical Corp., priority 2018, dated 2024)

Each compound was assayed against T1, HDAC6 human recombinant (Homo sapiens, UniProt Q9UBN7) (assay: HDAC enzyme activity inhibition (in vitro), fluorimetric HDAC6 assay). Settings: samples at 0.1, 1, 10, 100 and 1000 nM, 37° C. 60 minutes, fluorescence Ex 390, Em 460.
T1 sequence (Q9UBN7 1-1215): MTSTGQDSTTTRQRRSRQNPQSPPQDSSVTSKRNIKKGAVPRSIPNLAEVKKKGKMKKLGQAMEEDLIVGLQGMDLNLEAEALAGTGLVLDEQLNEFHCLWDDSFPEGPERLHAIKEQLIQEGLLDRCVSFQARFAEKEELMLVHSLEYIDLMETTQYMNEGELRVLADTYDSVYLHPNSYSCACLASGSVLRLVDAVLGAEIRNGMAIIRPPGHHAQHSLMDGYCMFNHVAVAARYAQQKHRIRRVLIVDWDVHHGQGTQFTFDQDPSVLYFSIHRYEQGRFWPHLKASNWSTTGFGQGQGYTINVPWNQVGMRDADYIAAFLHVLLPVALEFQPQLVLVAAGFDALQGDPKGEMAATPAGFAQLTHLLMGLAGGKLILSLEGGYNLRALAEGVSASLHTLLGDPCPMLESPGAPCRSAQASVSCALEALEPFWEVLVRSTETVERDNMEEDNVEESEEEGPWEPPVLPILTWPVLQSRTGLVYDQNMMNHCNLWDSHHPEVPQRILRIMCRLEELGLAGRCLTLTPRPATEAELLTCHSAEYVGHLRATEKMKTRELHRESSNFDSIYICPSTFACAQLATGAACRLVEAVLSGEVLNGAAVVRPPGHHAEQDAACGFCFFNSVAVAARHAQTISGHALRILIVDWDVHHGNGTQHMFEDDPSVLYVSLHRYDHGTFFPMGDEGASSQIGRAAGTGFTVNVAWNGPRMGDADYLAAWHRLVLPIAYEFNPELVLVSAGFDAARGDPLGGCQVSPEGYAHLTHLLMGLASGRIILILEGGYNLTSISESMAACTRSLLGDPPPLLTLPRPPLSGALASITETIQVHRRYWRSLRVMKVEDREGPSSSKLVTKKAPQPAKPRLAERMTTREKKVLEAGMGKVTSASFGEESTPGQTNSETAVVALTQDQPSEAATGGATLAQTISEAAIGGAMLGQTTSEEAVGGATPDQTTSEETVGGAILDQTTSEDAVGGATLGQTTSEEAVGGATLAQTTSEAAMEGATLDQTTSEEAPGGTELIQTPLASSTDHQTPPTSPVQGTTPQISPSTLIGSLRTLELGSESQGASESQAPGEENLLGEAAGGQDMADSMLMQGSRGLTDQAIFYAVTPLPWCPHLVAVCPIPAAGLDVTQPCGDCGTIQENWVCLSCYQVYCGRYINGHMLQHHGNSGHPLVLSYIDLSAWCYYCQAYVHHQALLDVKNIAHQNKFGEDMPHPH
Type: biochemical
Experimental: To identify this, HDAC1/6 enzyme selectivity and cell selectivity (HDAC1: histone acetylation/HDAC6: tubulin acetylation) were investigated accordingly.
An HDAC enzyme inhibitory ability of a test material was measured by means of HDAC1 Fluorimetric Drug Discovery Assay Kit (Enzolifesciences: BML-AK511) and HDAC6 human recombinant (Calbiochem: 382180). For an HDAC1 assay, samples were treated at a concentration of 100, 1000 and 10000 nM. For an HDAC6 assay, samples were treated at a concentration of 0.1, 1, 10, 100 and 1000 nM. After such sample treatment, a reaction was continued at 37° C. for 60 minutes, then treated with a developer, and then subjected to reaction at 37° C. for 30 minutes, after which fluorescence intensity (Ex 390, Em 460) was measured by means of FlexStation3 (Molecular device).
`CCC(CC)Cn1ccc(-c2nnc(C(F)F)o2)cc1=O` [Compound 27, 4-(5-(difluoromethyl)-1,3,4-oxadiazole-2-yl)-1-(2-ethylbutyl)pyridine-2(1H)-one] was tested, and the IC50 was 726 nM.
`CCN(CC)CCn1ccc(-c2nnc(C(F)F)o2)cc1=O` [Compound 11, 1-(2-(diethylamino)ethyl)-4-(5-(difluoromethyl)-1,3,4-oxadiazole-2-yl)pyridine-2(1H)one] showed an IC50 of 2250 nM.
`O=c1cc(-c2nnc(C(F)(F)F)o2)ccn1Cc1cccc(F)c1` [Compound 31, 1-(3-fluorobenzyl)-4-(5-(trifluoromethyl)-1,3,4-oxadiazole-2-yl)pyridine-2(1H)-one] showed an IC50 of 1100 nM.
`O=C(Cn1ccc(-c2nnc(C(F)F)o2)cc1=O)c1ccc(Cl)c(Cl)c1` [Compound 18, 1-(2-(3,4-dichlorophenyl)-2-oxoethyl)-4-(5-(difluoromethyl)-1,3,4-oxadiazole-2-yl)pyridine-2(1H)-one] was tested, and the IC50 was 509 nM.
`O=C(Cn1ccc(-c2nnc(C(F)F)o2)cc1=O)c1cccs1` [Compound 50, 4-(5-(difluoromethyl)-1,3,4-oxadiazole-2-yl)-1-(2-oxo-2-(thiophene-2-yl)ethyl)pyridine-2(1H)-one] gave an IC50 of 238 nM.
`Cc1cc(C(=O)Cn2ccc(-c3nnc(C(F)F)o3)cc2=O)c(F)cc1Cl` [Compound 23, 1-(2-(4-chloro-2-fluoro-5-methylphenyl)-2-oxoethyl)-4-(5-(difluoromethyl)-1,3,4-oxadiazole-2-yl)pyridine-2(1H)-one] was tested, and the IC50 was 598 nM.
`CCn1ccc(-c2nnc(C(F)(F)F)o2)cc1=O` [Compound 49, 1-ethyl-4-(5-(trifluoromethyl)-1,3,4-oxadiazole-2-yl)pyridine-2(1H)-one] gave an IC50 of 1590 nM.
`O=C(Cn1ccc(-c2nnc(C(F)F)o2)cc1=O)c1ccc(Cl)cc1` [Compound 19, 1-(2-(4-chlorophenyl)-2-oxoethyl)-4-(5-(difluoromethyl)-1,3,4-oxadiazole-2-yl)pyridine-2(1H)-one] gave an IC50 of 351 nM.
Compound `O=C(Cn1ccc(-c2nnc(C(F)(F)F)o2)cc1=O)c1cccs1` [Compound 36, 1-(2-oxo-2-(thiophene-2-yl)ethyl)-4-(5-(trifluoromethyl)-1,3,4-oxadiazole-2-yl)pyridine-2(1H)-one] has an IC50 of 935 nM.
Work on `O=C(Cn1ccc(-c2nnc(C(F)F)o2)cc1=O)c1ccccc1` [Compound 3, 4-(5-(difluoromethyl)-1,3,4-oxadiazole-2-yl)-1-(2-oxo-2-phenylethyl)pyridine-2(1H)-one] yielded an IC50 of 210 nM.
For `CC(C)CCn1ccc(-c2nnc(C(F)F)o2)cc1=O` [Compound 53], the IC50 was 388 nM.
`CCn1ccc(-c2nnc(C(F)F)o2)cc1=O` [Compound 55, 4-(5-(difluoromethyl)-1,3,4-oxadiazole-2-yl)-1-ethylpyridine-2(1H)-one] showed an IC50 of 284 nM.
Compound `O=c1cc(-c2nnc(C(F)F)o2)ccn1CCC1OCCCO1` [Compound 9, 1-(2-(1,3-dioxane-2-yl)ethyl)-4-(5-(difluoromethyl)-1,3,4-oxadiazole-2-yl)pyridine-2(1H)-one] has an IC50 of 247 nM.
With `CC(C)=CCn1ccc(-c2nnc(C(F)(F)F)o2)cc1=O` [Compound 48, 1-(3-methylbut-2-en-1-yl)-4-(5-(trifluoromethyl)-1,3,4-oxadiazole-2-yl)pyridine-2(1H)-one] the IC50 was 1670 nM.
With `COc1ccc(OC)c(C(=O)Cn2ccc(-c3nnc(C(F)F)o3)cc2=O)c1` [Compound 24, 4-(5-(difluoromethyl)-1,3,4-oxadiazole-2-yl)-1-(2-(2,5-dimethoxyphenyl)-2-oxoethyl) pyridine-2(1H)-one] the IC50 was 284 nM.
`O=C(Cn1ccc(-c2nnc(C(F)F)o2)cc1=O)c1ccc2c(c1)OCCO2` [Compound 21] was tested, and the IC50 was 381 nM.
With `O=c1cc(-c2nnc(C(F)F)o2)ccn1Cc1cccc(F)c1` [Compound 14, 4-(5-(difluoromethyl)-1,3,4-oxadiazole-2-yl)-1-(3-fluorobenzyl)pyridine-2(1H)-one] the IC50 was 108 nM.
`O=c1cc(-c2nnc(C(F)(F)F)o2)ccn1Cc1cc(F)ccc1F` [Compound 33, 1-(2,5-difluorobenzyl)-4-(5-(trifluoromethyl)-1,3,4-oxadiazole-2-yl)pyridine-2(1H)-one] was tested, and the IC50 was 1270 nM.
Compound `C=C(C)Cn1ccc(-c2nnc(C(F)F)o2)cc1=O` [Compound 52, 4-(5-(difluoromethyl)-1,3,4-oxadiazole-2-yl)-1-(2-methylallyl)pyridine-2(1H)-one] has an IC50 of 377 nM.
Compound `O=C(OCCn1ccc(-c2nnc(C(F)(F)F)o2)cc1=O)c1ccccc1` [Compound 39, 2-(2-oxo-4-(5-(trifluoromethyl)-1,3,4-oxadiazole-2-yl)pyridine-1(2H)-yl)ethyl benzoate] has an IC50 of 900 nM.
`O=c1cc(-c2nnc(C(F)(F)F)o2)ccn1Cc1ccccc1F` [Compound 32, 1-(2-fluorobenzyl)-4-(5-(trifluoromethyl)-1,3,4-oxadiazole-2-yl)pyridine-2(1H)-one] showed an IC50 of 2420 nM.
`O=C(Cn1ccc(-c2nnc(C(F)F)o2)cc1=O)c1coc2ccccc12` [Compound 51, 1-(2-(benzofuran-3-yl)-2-oxoethyl)-4-(5-(difluoromethyl)-1,3,4-oxadiazole-2-yl)pyridine-2(1H)-one] was tested, and the IC50 was 284 nM.
`O=C(C(Cn1ccc(-c2nnc(C(F)F)o2)cc1=O)c1ccccc1)N1CCOCC1` (centres unmarked) [Compound 45, 4-(5-(difluoromethyl)-1,3,4-oxadiazole-2-yl)-1-(3-morpholino-3-oxo-2-phenylpropyl)pyridine-2(1H)-one] gave an IC50 of 290 nM.
Compound `O=C(Cn1ccc(-c2nnc(C(F)(F)F)o2)cc1=O)c1ccccc1` [Compound 42, 1-(2-oxo-2-phenylethyl)-4-(5-(trifluoromethyl)-1,3,4-oxadiazole-2-yl)pyridine-2(1H)-one] has an IC50 of 1910 nM.
Compound `CS(=O)(=O)c1ccc(C(=O)Cn2ccc(-c3nnc(C(F)(F)F)o3)cc2=O)cc1` [Compound 35, 1-(2-(4-(methylsulfonyl)phenyl)-2-oxoethyl)-4-(5-(trifluoromethyl)-1,3,4-oxadiazole-2-yl)pyridine-2(1H)-one] has an IC50 of 2210 nM.
`O=C1c2ccccc2C(=O)N1CCCCn1ccc(-c2nnc(C(F)F)o2)cc1=O` [Compound 29, 2-(4-(4-(5-(difluoromethyl)-1,3,4-oxadiazole-2-yl)-2-oxopyridine-1(2H)-yl)butyl)isoindoline-1,3-dione] showed an IC50 of 261 nM.
`O=c1cc(-c2nnc(C(F)F)o2)ccn1Cc1cc(F)c(F)cc1F` [Compound 13, 4-(5-(difluoromethyl)-1,3,4-oxadiazole-2-yl)-1-(2,4,5-trifluorobenzyl)pyridine-2(1H)-one] showed an IC50 of 306 nM.
With `O=C(Cn1ccc(-c2nnc(C(F)F)o2)cc1=O)OCc1ccccc1` [Compound 15, benzyl 2-(4-(5-(difluoromethyl)-1,3,4-oxadiazole-2-yl)-2-oxopyridine-1(2H)-yl)acetate] the IC50 was 74 nM.
`O=C(Cn1ccc(-c2nnc(C(F)(F)F)o2)cc1=O)c1coc2ccccc12` [Compound 38, 1-(2-(benzofuran-3-yl)-2-oxoethyl)-4-(5-(trifluoromethyl)-1,3,4-oxadiazole-2-yl)pyridine-2(1H)-one] showed an IC50 of 2390 nM.
Work on `O=C(Cn1ccc(-c2nnc(C(F)(F)F)o2)cc1=O)c1ccc2ccccc2c1` [Compound 41, 1-(2-(naphthalene-2-yl)-2-oxoethyl)-4-(5-(trifluoromethyl)-1,3,4-oxadiazole-2-yl)pyridine-2(1H)-one] yielded an IC50 of 5180 nM.
Compound `O=C(Cn1ccc(-c2nnc(C(F)F)o2)cc1=O)c1ccc([N+](=O)[O-])cc1` [Compound 25, 4-(5-(difluoromethyl)-1,3,4-oxadiazole-2-yl)-1-(2-(4-nitrophenyl)-2-oxoethyl)pyridine-2(1H)-one] has an IC50 of 239 nM.
With `O=C(OCCn1ccc(-c2nnc(C(F)F)o2)cc1=O)c1ccccc1` [Compound 16, 2-(4-(5-(difluoromethyl)-1,3,4-oxadiazole-2-yl)-2-oxopyridine-1(2H)-yl)ethyl] the IC50 was 952 nM.
